Reference: US20210386835A1, “AN ANTIMICROBIAL COMPOSITION FOR SELECTIVELY INHIBITING GROWTH OF P. ACNES BACTERIA” (priority 2018, published 2021)

B1: Endolysin: recombinant P. acnes phage endolysin cloned from Propionibacterium phage 29399B_C, 284 amino acids, expressed in E. coli (protein)
chain: MRYIPAAHHSAGSNHPVNRVVIHATCPDVGFPSASRKGRAVSTANYFASPSSGGSAHYVCDIGETVQCLSEGTIGWHAPPNPHSLGIEICADGGSHASFRVPGHAYTREQWLDPRVWPAVEKAAILCRRLCDKYNVPKRKLSAADLKAGRRGVCGHVDVTDAWHQSDHDDPGPWFPWDRFMAVVNGHNESGELTVADVKALHDQIKQLSAQLAGSVNKLHHDVGVVQVQNGDLGKRVDALSWVKNPVTGKLWRTKDALWSVWYYVLECRSRIDRLESAVNGLKKLEHHHHHH
modifications: His6 tag; Polypeptide sequence of Endolysin with C-terminal Histidine tag (x6)

System: P. acnes 6919 strain (ATCC, USA)
Assay: Contact kill assay against P. acnes (2 h exposure, colony count)
Format: cell-based, Propionibacterium acnes
Conditions: 10 mM HEPES pH 7.0, 37° C., relative to control
Protocol: P. acnes 6919 strain (ATCC, USA) was grown under anaerobic conditions on RCM agar from Glycerol stocks. A loopful of culture from glycerol stock was streaked on freshly prepared RCM agar plate and incubated at 37° C. anaerobically for 4-5 days. After the incubation, the culture was taken from the plate and re-suspended in saline and then centrifuged at 8000 rpm for 6 minutes at 4° C. The pellet obtained was re-suspended in 10 mM HEPES buffer (pH 7.0). An OD600 culture of 0.5 was made in HEPES buffer. 1:10 dilution of 0.5 OD adjusted culture was used for contact kill assay corresponding to 10^6 cells per ml. […] The contact assay was performed in 10 mM HEPES buffer (pH 7.0). For control, 181 μl of 1:10 diluted […] adjusted culture was mixed with 19 μl of HEPES buffer to make a volume of 200 μl. […] The mixture was mixed and incubated at 37° C. for 2 hours in shaker incubator. Post incubation, the samples were neutralised by serial 1:10 dilution in D/E broth followed by saline dilutions. 100 μl of each dilution was plated on fresh RCM agar plates and allowed to dry. The plates were sealed with parafilm and incubated at 37° C. in anaerobic chamber for 4-5 days. Post incubation, colonies were counted and titer was estimated as log CFU/ml. The relative log reductions of individual and combination treatment were calculated with respect to control and the data is presented in the table below: […]

Molecule | Relative log reduction (Thymol 0.01%) | Relative log reduction (Thymol 0.02%) | Relative log reduction (Endolysin 3 μM)
Cc1ccc(C(C)C)c(O)c1 [Thymol, thymol] | 0.33 | 2.02 | 
B1 |  |  | 1.17
